{
  "source": "patent US12357552B2",
  "about": "“Hydroxyquinoline compounds and methods of use as pigment modifying agents” (priority 2021, dated 2025)",
  "key": {"tyrosinase": {"test_system": "tyrosinase", "conditions": "cited from earlier work"}, "[1]": {"test": "solubility in aqueous solution under the tyrosinase assay conditions", "conditions": "higher concentrations"}, "MNT-1 cells [2]": {"test_system": "MNT-1 cells", "test": "inhibition of melanin production in human melanoma MNT-1 cells", "format": "cell-based", "conditions": "3 days", "method": "To assess melanogenesis inhibition within cells, the human melanoma MNT-1 cell line (CRL-3450 from ATCC), cultured and divided according to the recommended protocol, was subjected to varying concentrations of chloroxine (2) and the other hydroxyquinoline drugs. The MNT-1 cell line was chosen because it was previously used successfully for quantifying melanin synthesis (Hah et al., 2012). Frozen stocks (3.8×10^6 cells) of cells were thawed in a 37° C. water bath, then plated into three 10-cm plates containing 10 mL of MDEM+10% fetal bovine serum and 100 μL of 100× Penicillin/Streptomycin. When the cells became confluent, medium was aspirated, cells were rinsed with sterile phosphate-buffered saline (PBS), and then treated with 1 mL of 0.25% trypsin with 0.02% EDTA at 37° C. for 3 min. When the cells became loose, 4 mL of medium was added to neutralize the trypsin. FIG. 5 depicts the inhibition of melanin production in MNT-1 cells by chloroxine, an inhibitor of tyrosinase, at concentrations indicated. Cells were incubated with chloroxine for 3 days and then harvested, with melanin quantified after cell lysis, measuring absorbance at 405 nm. […]\nWhere Acmpd is the absorbance value for the test compound, and Ap and An are the absorbance values of the positive and negative controls, respectively. […]"}, "MNT-1 cells [3]": {"test_system": "MNT-1 cells", "test": "viability assay in MNT-1 cell line", "format": "cell-based, human", "excerpt": "Where Acmpd is the absorbance value for the test compound, and Ap and An are the absorbance values of the positive and negative controls, respectively. FIG. 6 depicts the reduction in melanin biosynthesis in MNT-1 cells by chloroxine, relative to the positive control phenylthiourea (PTU), a tyrosinase inhibitor commonly used as a melanin synthesis blocker. Other hydroxyquinoline drugs caused different effects in the MNT-1 cell line. At higher concentrations, the iodo-substituted compounds clioquinol (3) and iodoquinol (4) were toxic, with decreased cell counts in the viability assay."}, "mushroom tyrosinase [4]": {"target": "mushroom tyrosinase (Agaricus bisporus, UniProt C7FF04)", "sequence (C7FF04 1-392)": "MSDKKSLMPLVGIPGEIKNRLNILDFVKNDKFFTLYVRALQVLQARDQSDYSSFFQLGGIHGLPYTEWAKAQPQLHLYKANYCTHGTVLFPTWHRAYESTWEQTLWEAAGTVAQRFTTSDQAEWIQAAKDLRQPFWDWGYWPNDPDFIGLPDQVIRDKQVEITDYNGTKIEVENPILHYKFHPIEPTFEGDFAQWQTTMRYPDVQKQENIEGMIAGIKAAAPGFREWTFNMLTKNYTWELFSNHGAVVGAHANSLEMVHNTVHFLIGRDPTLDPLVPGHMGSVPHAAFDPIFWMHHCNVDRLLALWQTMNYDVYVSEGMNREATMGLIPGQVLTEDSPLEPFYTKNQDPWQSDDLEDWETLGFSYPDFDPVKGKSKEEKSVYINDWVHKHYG", "test": "fluorescence-based tyrosinase assay with substrate PAP-AMC (monophenolase activity)", "description": "Enzyme activity was measured using the fluorescent substrate PAP-AMC. […] Fluorescence spectroscopy was carried out on a Carey Eclipse spectrophotometer. Fluorescence intensity was measured at 6-second intervals in quartz cuvettes kept at 37° C. […] In vitro fluorescence assays using mushroom tyrosinase (Worthington Biochemicals) were performed in 50 mM sodium phosphate buffer, pH 7.4 with the fluorescent tyrosinase substrate, PAP-AMC (Biovision). Varying concentrations of inhibitors were used as indicated. Data represent the mean±SD of three independent experiments.\nAfter 5 minute incubation, inhibitor was added as a solution in DMSO. After an additional 2 minute incubation, a DMSO solution of PAP-AMC (0.02 mL of 1 mM solution) was added and, after thoroughly mixing, the reaction was monitored by fluorescence (λ excitation=350 nm; λ emission=440 nm). Initial rates were calculated using the slope of the curve for the first ca. 10% of the reaction. The first 1 min of the reaction were not used owing to the usual induction period observed with tyrosinase. Inhibition assays were performed in triplicate trials. Non-linear regression and curve fitting were done using Prism software (Graphpad Inc). […] The experiment was performed in triplicate at pH 7.4 and data were plotted according to Lineweaver-Burk. Data represent the mean±SD of three independent experiments."}, "mushroom tyrosinase [5]": {"test_system": "mushroom tyrosinase", "test": "assessment of reversibility: residual tyrosinase activity after ultrafiltration, with or without exogenous copper sulfate", "format": "biochemical", "conditions": "5 μM inhibitor", "method": "To gain further insight into the mode of action of the hydroxyquinoline drugs, residual enzyme activity was assessed after separation of the drug from the enzyme. This is generally done to assess whether the inhibitor acts in a reversible or irreversible manner. After incubation and measurement of tyrosinase activity, the drug nitroxoline (1) was separated from the reaction mixture in a Centricon centrifugal filter device, and enzymatic activity remeasured with fresh PAPAMC substrate.\nWhen residual activity was measured after ultracentrifugation, less than 10% of the original activity remained (FIG. 4(b)). […]\nTo assess reversibility of enzyme inhibition, a reaction mixture containing 5 μM inhibitor was placed into Amicon Ultra centrifugal filters (10 K MWCO), concentrated at 4000 rpm for 10 minutes, followed by dilution with sodium phosphate buffer for a total of three cycles. If reconstitution of enzyme activity was being evaluated, exogenous copper sulfate was added to the remaining solution to a final concentration of 0.1 mM. Then fresh L-DOPA and PAP-AMC substrate was added and fluorescence change measured as previously described. […]"}},
  "note": "Read-outs that look alike come from different tables or passages of the source.",
  "data": [
    {"compound": "O=c1cc(CO)occ1O", "note": "[kojic acid]", "values": [
      {"measurement": "inhibition of tyrosinase", "setting": "tyrosinase", "value": "high micromolar"}
    ]},
    {"compound": "Oc1c(Cl)cc(Cl)c2cccnc12", "note": "[chloroxine]", "values": [
      {"measurement": "solubility in aqueous solution", "setting": "[1]", "value": "did not show evidence of insolubility"},
      {"measurement": "ability to block melanin production", "setting": "MNT-1 cells [2]", "value": "dose-dependent"},
      {"measurement": "IC50", "setting": "MNT-1 cells [2]; Homo sapiens, 72 h, absorbance at 405 nm, read-out: IC50 value for blocking melanin synthesis", "value": "~1.5", "unit": "µM"},
      {"measurement": "toxicity (cell counts in the viability assay)", "setting": "MNT-1 cells [3]", "value": "not toxic"},
      {"measurement": "Ki", "setting": "mushroom tyrosinase [4]", "value": "~12", "unit": "µM"}
    ]},
    {"compound": "Oc1c(I)cc(Cl)c2cccnc12", "note": "[clioquinol]", "values": [
      {"measurement": "toxicity (cell counts in the viability assay)", "setting": "MNT-1 cells [3]", "value": "toxic"},
      {"measurement": "Ki", "setting": "mushroom tyrosinase [4]", "value": 367, "unit": "µM"}
    ]},
    {"compound": "iodoquinol", "values": [
      {"measurement": "solubility in aqueous solution", "setting": "[1]", "value": "less soluble in aqueous solution"},
      {"measurement": "toxicity (cell counts in the viability assay)", "setting": "MNT-1 cells [3]; MNT-1 cells, higher concentrations", "value": "toxic"},
      {"measurement": "inhibitory constant (in words)", "setting": "mushroom tyrosinase [4]; monophenolase activity of tyrosinase", "value": "high micromolar"},
      {"measurement": "Ki", "setting": "mushroom tyrosinase [4]; mushroom tyrosinase, PAP-AMC substrate, pH 7.4", "value": 1290, "unit": "µM"}
    ]},
    {"compound": "O=[N+]([O-])c1ccc(O)c2ncccc12", "note": "[nitroxoline]", "values": [
      {"measurement": "toxicity (cell counts in the viability assay)", "setting": "MNT-1 cells [3]", "value": "not toxic"},
      {"measurement": "enzyme activity after incubation of the concentrate with exogenous copper sulfate", "setting": "mushroom tyrosinase [5]; after ultrafiltration, 0.1 mM copper sulfate", "value": "substantial recovery of original enzyme activity"},
      {"measurement": "residual activity after ultracentrifugation, of the original activity", "setting": "mushroom tyrosinase [5]; no exogenous copper sulfate", "value": "less than 10%"},
      {"measurement": "Ki", "setting": "mushroom tyrosinase [4]", "value": 0.9, "unit": "µM"},
      {"measurement": "type of enzyme inhibition (Lineweaver-Burk)", "setting": "mushroom tyrosinase [4]; varying substrate and inhibitor concentrations, pH 7.4", "value": "competitive inhibitor"}
    ]}
  ]
}
